{"source": "patent US7820651B2", "about": "“Preparation of antimicrobial formulations using 7-oxa-2-thia-1,5-diazabicyclo[3.3.1]nonane-2,2-dione” (priority 2006, dated 2010)", "key": {"[1]": {"assay": "Exploratory experiments for dissolving in water (solubility)", "format": "physicochemical", "conditions": "in 100 ml of water at room temperature"}, "[2]": {"tested_on": "P. aeruginosa (ATCC 15442)", "assay": "Bactericidal activity according to DIN EN 1040 (membrane filtration), microbial count reduction", "format": "cell-based", "conditions": "20°±1° C., pH 6.3", "description": "(§1) With regard to a possible use as lock solution, a solution was prepared, for testing for antimicrobial activity, by dissolving 0.85 g of cyclotaurolidine and 4.8 g of monosodium citrate in water (100 ml) with stirring, a clear colorless solution being obtained. After the pH of the solution had been adjusted to 6.3, the solution was filtered and filled into ampoules. The bactericidal and fungicidal activity of the solution was tested by a recognized test laboratory according to DIN EN 1040 and DIN EN 1275 (membrane filtration) against the test organisms S. aureus (ATCC 6538), P. aeruginosa (ATCC 15442), S. epidermis (ATCC 12288), C. albicans (ATCC 10231) and A. niger (ATCC 16404). The microbial count reductions observed for an action time of the test solution of 60 min and of 24 h at a test temperature of 20°±1° C. were determined. The results are given in log steps of the microbial count reduction, minimum reductions of ≧5.0 log steps being required with respect to the test microorganisms S. aureus, P. aeruginosa and S. epidermis and log steps of ≧4.0 for C. albicans and A. niger, based on DIN EN 1040 and DIN EN 1275."}, "[3]": {"tested_on": "S. aureus (ATCC 6538)", "assay": "Bactericidal activity according to DIN EN 1040 (membrane filtration), microbial count reduction", "format": "cell-based", "conditions": "20°±1° C., pH 6.3", "description": "as §1"}, "[4]": {"tested_on": "S. epidermis (ATCC 12288)", "assay": "Bactericidal activity according to DIN EN 1040 (membrane filtration), microbial count reduction", "format": "cell-based", "conditions": "20°±1° C., pH 6.3", "description": "as §1"}, "[5]": {"tested_on": "A. niger (ATCC 16404)", "assay": "Fungicidal activity according to DIN EN 1275 (membrane filtration), microbial count reduction", "format": "cell-based", "conditions": "20°±1° C., pH 6.3", "description": "as §1"}, "[6]": {"tested_on": "C. albicans (ATCC 10231)", "assay": "Fungicidal activity according to DIN EN 1275 (membrane filtration), microbial count reduction", "format": "cell-based", "conditions": "20°±1° C., pH 6.3", "description": "as §1"}, "[7]": {"format": "physicochemical", "description": "In contrast to taurolidin, cyclotaurolidine can therefore also be processed to give formulations in organic vehicles, for example in many customary organic vehicle materials for pharmaceutical and cosmetic purposes. This permits, for example, advantageous use in ointments and gels and on plastic surfaces (in the surface layers of stents), for example in agents for disinfecting the skin surface or as a fungicide, for example for the feet."}, "[8]": {"conditions": "action time 60 min, 0.85 g cyclotaurolidine and 4.8 g monosodium citrate in 100 ml water"}, "[9]": {"conditions": "action time 24 h, 0.85 g cyclotaurolidine and 4.8 g monosodium citrate in 100 ml water"}, "[10]": {"conditions": "action time 60 min, comparative aqueous solution, 2% by weight of taurolidin with citrate"}, "[11]": {"conditions": "action time 24 h, comparative aqueous solution, 2% by weight of taurolidin with citrate"}}}
{"molecule": "O=S1(=O)CCN2COCN1C2", "note": "[cyclotaurolidine, 7-oxa-2-thia-1,5-diazabicyclo[3.3.1]nonane-2,2-dione]", "values": [{"measurement": "solubility", "setting": "[1]", "value": "≤ 13", "unit": "mg/mL"}, {"measurement": "microbial count reduction", "setting": "[2]; [8]", "value": "> 5.27", "unit": "log steps"}, {"measurement": "microbial count reduction", "setting": "[2]; [9]", "value": "> 5.27", "unit": "log steps"}, {"measurement": "microbial count reduction", "setting": "[3]; [8]", "value": 2.04, "unit": "log steps"}, {"measurement": "microbial count reduction", "setting": "[3]; [9]", "value": "> 5.25", "unit": "log steps"}, {"measurement": "microbial count reduction", "setting": "[4]; [8]", "value": 1.22, "unit": "log steps"}, {"measurement": "microbial count reduction", "setting": "[4]; [9]", "value": "> 5.29", "unit": "log steps"}, {"measurement": "microbial count reduction", "setting": "[5]; [8]", "value": "> 4.08", "unit": "log steps"}, {"measurement": "microbial count reduction", "setting": "[5]; [9]", "value": "> 4.08", "unit": "log steps"}, {"measurement": "microbial count reduction", "setting": "[6]; [8]", "value": "> 4.26", "unit": "log steps"}, {"measurement": "microbial count reduction", "setting": "[6]; [9]", "value": "> 4.26", "unit": "log steps"}, {"measurement": "solubility in organic solvents", "setting": "[7]", "value": "soluble in various organic solvents"}, {"measurement": "stability in the air", "setting": "[7]", "value": "stable in the air at customary temperatures"}]}
{"molecule": "O=S1(=O)CCN(CN2CCS(=O)(=O)NC2)CN1", "note": "[taurolidin, reference compound]", "values": [{"measurement": "microbial count reduction", "setting": "[2]; [10]", "value": "> 5.27", "unit": "log steps"}, {"measurement": "microbial count reduction", "setting": "[2]; [11]", "value": "≥ 5.27", "unit": "log steps"}, {"measurement": "microbial count reduction", "setting": "[3]; [10]", "value": 1.33, "unit": "log steps"}, {"measurement": "microbial count reduction", "setting": "[3]; [11]", "value": "≥ 5.25", "unit": "log steps"}, {"measurement": "microbial count reduction", "setting": "[4]; [10]", "value": "> 0.99", "unit": "log steps"}, {"measurement": "microbial count reduction", "setting": "[4]; [11]", "value": "≥ 5.29", "unit": "log steps"}, {"measurement": "microbial count reduction", "setting": "[5]; [10]", "value": 1.18, "unit": "log steps"}, {"measurement": "microbial count reduction", "setting": "[5]; [11]", "value": "≥ 4.08", "unit": "log steps"}, {"measurement": "microbial count reduction", "setting": "[6]; [10]", "value": 0, "unit": "log steps"}, {"measurement": "microbial count reduction", "setting": "[6]; [11]", "value": 3.70, "unit": "log steps"}]}
